Where two headings read alike, the source gives them in different places.
Columns and labels:
[1] = target: T1, Ba/F3 cells containing Ros1 wild-type protein (Homo sapiens, UniProt P08922, cells depend on it, form not given); assay: Ba/F3-Ros1 cell proliferation assay, wild-type Ros1; assay type: cell-based, murine; details: without IL-3
T1 construct: The background only speaks of 'a number of different unrelated proteins' and names SLC34A2-ROS1 for HCC78 cells
How it was run: (§1)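 20000 Ba/F3-Ros1 cells/well (WT, L2026M, G2032R), RPMI-1640 phenol red free + 10% FBS + 2 mM Gln, cpds from DMSO; 24 h, 37 °C, 5% CO2. Alamar Blue 4 h, RFU ex540/em590.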

[2] = test system: HCC78 non-small cell lung cancer cells; assay: HCC78 cell proliferation assay; assay type: cell-based; details: for EC50: Homo sapiens, HCC78, 96 h, read-out: HCC-78 PROL pEC50 (converted)
How it was run: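 HCC78 NSCLC cells (~1000/well) in RPMI-1640 with 10% FBS were treated 24 h after seeding and exposed to compound for 4 days at 37 °C. Viability was read by MTT, with absorbance at 538 nm after DMSO/glycine solubilization.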

[3] = target: Ba/F3 cells containing Ros1 with G2032R mutation (Homo sapiens, UniProt P08922, G2032R, cells depend on it, form not given); assay: Ba/F3-Ros1 cell proliferation assay, G2032R crizotinib-resistance mutant; assay type: cell-based, murine; details: without IL-3
Procedure: Ba/F3-Ros1 Cell Proliferation Assay
This assay was carried out with Ba/F3 cells containing three different versions of Ros1: the wild-type protein, protein with a mutation at the gatekeeper residue (L2026M), and protein with a mutation identified in a tumor from a patient that became resistant to crizotinib (Xalkori®) treatment (G2032R). Compounds were solubilized in 100% DMSO (dimethyl sulfoxide) and sprayed into polystyrene, tissue culture treated 384-well plates. A 50 μl volume of cell culture medium (phenol red free RPMI-1640, 10% FBS (fetal bovine serum), 2 mM L-Glutamine) containing 20000 Ba/F3-Ros1 cells was added to each well and the plates were placed in an incubator at 37° C. and 5% CO2. After 24 hours, 10 μl of Alamar Blue solution (0.5 mM K3Fe(CN)6, 0.5 mM K4Fe(CN)6, 0.15 mM Resazurin and 100 mM Phosphate Buffer) was added to the wells, incubated for 4 hours at 37° C. and 5% CO2 before RFU's (Relative Fluorescence Units) (ex. 540 nm., em. 590 nm.) were measured in a fluorescence plate reader.

[4] = target: Ba/F3 cells containing Ros1 with a mutation at the gatekeeper residue (L2026M) (Homo sapiens, UniProt P08922, L2026M, cells depend on it, form not given); assay: Ba/F3-Ros1 cell proliferation assay, L2026M gatekeeper mutant; assay type: cell-based, murine; details: without IL-3
How it was run: as §1

[5] = target: T2, Ros1 enzyme (Homo sapiens, UniProt P08922); assay: Ros1 enzymatic assay; assay type: biochemical; details: Ros1 enzymatic assay; for IC50: read-out: ROS1 pIC50 (converted)
T2 construct: 0.5 μg/ml Ros1 enzyme
How it was run: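 Radiometric proximity read-out: 33P incorporated into IRS-Tide captured on streptavidin imaging beads and imaged on LEADseeker. Phosphorylation ran 120 min at RT with 20 μM ATP (substrate-mix level) in Tris pH7.5/MgCl2/EGTA/Tween buffer; EDTA stop.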

[6] = test system: Ba/F3 cells containing Ros1 wild-type protein + IL-3; assay: Ba/F3-Ros1 cell proliferation counter-screen, wild-type protein in the presence of 10 ng/ml murine IL-3; assay type: cell-based; details: Mus musculus, BaF3, 24 h, read-out: BaF3-ROS1 + IL3 pIC50 (converted)
How it was run: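 IL-3 rescue counter-screen: WT Ros1 Ba/F3, 10 ng/ml mIL-3, 24 h compound exposure, 37 °C/5% CO2; Alamar Blue added 4 h, RFU ex540/em590.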

[7] = test system: Ros pY2274 in HCC78 cells; assay: pROS1 immunofluorescence assay in HCC78 cells; assay type: cell-based; details: Homo sapiens, read-out: HCC78-pRos1 pIC50 (converted)
Procedure: pROS1 Immunofluorescence Assay in HCC78 Cells
Approximately 20000 HCC78 non-small cell lung cancer cells in 180 μl of cell culture medium (RPMI-1640, 10% FBS, 2 mM L-Glutamine, 10 mM Hepes, 1 mM sodium pyruvate, 4.5 g/L glucose, 1.5 g/L sodium bicarbonate, 25 μg/ml Gentamycin) were seeded in each well of a 96-well polystyrene, poly-D-lysine coated plate and incubated at 37° C. and 5% CO2. After 24 hours, compounds were diluted in cell culture medium from which 20 μl was added to the wells containing cells and incubated for 4 hours at 37° C. and 5% CO2. The medium was removed and the cells were fixed by adding 100 μl of 5% formaldehyde in TBS (tris-buffered saline) (50 mM Tris.HCl, pH 7.4, 150 mM NaCl) and incubating for 15 minutes at room temperature. The formaldehyde was removed and replaced with methanol for 10 minutes at room temperature, after which the cells were washed 3 times with TBS containing 1% Triton X-100 and incubated in Odyssee (Li-Cor) blocking buffer for 1 hour at room temperature. The cells were then incubated with the primary rabbit antibody directed against Ros pY2274 (cst-3078) diluted 1/200 in blocking buffer for 24 hours at room temperature. The cells were washed three times with TBS containing 0.1% Triton X-100 and incubated with a secondary anti-rabbit antibody conjugated to the fluorescent dye Alexafluor 680 in blocking buffer for 1 hour at room temperature. The cells were washed three times with TBS containing 0.1% Triton X-100 and left to dry before measuring RFUs (Relative Fluorescence Units) at 700 nm using a fluorescence imager.
The same experiment was performed using total Ros1 antibody (sc-6347) diluted 1/1000 instead of Ros1 pY2274 antibody and an anti-goat antibody conjugated to IRDye800cw as a secondary antibody. RFUs were measured at […]. The signals from total Ros1 detection were used to normalize the Ros1 pY2274 values.

[8] = counter-screen, wild-type, 10 ng/ml murine IL-3
[9] = HCC78 cells, 4 hours, Ros pY2274 normalized to total Ros1

T1 sequence (P08922 whole entry, stated change not applied): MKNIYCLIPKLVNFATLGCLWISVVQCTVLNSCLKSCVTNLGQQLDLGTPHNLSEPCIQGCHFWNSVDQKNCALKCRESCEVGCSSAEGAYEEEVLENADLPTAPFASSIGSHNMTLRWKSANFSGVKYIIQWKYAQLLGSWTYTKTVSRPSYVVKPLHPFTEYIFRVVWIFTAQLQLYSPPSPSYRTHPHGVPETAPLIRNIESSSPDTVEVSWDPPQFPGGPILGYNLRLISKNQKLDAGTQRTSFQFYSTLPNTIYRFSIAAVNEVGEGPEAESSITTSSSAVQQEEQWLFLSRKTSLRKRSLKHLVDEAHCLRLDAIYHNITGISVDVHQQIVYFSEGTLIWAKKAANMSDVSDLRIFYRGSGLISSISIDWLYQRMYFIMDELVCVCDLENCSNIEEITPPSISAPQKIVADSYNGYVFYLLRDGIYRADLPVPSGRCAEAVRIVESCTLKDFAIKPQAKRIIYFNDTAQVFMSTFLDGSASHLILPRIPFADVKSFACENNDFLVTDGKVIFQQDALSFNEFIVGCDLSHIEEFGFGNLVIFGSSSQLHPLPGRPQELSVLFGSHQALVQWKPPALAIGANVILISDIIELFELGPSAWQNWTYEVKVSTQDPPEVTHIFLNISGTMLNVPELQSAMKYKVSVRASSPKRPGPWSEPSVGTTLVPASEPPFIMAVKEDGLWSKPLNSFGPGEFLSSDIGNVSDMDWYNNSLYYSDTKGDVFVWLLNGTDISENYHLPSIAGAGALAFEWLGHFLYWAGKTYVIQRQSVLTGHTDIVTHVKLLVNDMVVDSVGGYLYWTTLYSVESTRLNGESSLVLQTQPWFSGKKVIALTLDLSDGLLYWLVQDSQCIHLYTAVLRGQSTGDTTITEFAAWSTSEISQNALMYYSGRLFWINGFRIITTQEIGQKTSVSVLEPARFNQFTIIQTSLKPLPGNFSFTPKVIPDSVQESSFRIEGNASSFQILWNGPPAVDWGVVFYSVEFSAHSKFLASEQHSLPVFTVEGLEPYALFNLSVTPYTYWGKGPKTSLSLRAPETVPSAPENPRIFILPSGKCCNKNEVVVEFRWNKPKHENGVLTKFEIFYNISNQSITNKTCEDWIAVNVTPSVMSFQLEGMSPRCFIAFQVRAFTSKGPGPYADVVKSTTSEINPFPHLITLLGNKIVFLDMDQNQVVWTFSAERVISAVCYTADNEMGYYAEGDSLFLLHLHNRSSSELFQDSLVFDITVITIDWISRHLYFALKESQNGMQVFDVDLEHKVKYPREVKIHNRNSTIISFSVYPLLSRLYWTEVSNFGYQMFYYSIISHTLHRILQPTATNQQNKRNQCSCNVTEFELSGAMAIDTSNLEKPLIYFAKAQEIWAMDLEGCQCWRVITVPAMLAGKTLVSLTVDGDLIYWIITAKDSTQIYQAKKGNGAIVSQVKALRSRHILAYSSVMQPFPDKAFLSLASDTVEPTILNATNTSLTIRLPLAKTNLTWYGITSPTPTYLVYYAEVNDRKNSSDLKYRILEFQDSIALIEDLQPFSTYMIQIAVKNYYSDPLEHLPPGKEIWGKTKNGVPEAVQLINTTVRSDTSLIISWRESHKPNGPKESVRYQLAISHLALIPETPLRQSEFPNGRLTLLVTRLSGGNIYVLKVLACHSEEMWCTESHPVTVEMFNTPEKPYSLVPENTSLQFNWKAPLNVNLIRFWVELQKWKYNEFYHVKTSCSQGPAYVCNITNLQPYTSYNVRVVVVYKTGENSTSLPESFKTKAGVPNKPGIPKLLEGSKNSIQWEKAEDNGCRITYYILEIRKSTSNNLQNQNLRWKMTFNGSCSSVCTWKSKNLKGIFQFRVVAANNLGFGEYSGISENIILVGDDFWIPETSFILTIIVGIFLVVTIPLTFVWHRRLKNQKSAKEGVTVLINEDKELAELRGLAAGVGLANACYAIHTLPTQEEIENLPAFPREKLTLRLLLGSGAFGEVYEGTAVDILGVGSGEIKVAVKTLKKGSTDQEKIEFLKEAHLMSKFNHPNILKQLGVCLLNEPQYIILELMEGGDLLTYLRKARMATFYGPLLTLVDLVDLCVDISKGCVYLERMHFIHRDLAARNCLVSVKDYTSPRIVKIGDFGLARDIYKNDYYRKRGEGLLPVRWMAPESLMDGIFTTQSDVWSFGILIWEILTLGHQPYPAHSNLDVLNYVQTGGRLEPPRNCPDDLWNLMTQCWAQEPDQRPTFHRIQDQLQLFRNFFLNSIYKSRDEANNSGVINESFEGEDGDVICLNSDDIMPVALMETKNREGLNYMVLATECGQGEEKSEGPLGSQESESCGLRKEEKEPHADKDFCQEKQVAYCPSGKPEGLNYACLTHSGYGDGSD
Sequence of Ba/F3 cells containing Ros1 with G2032R mutation (P08922 whole entry G2032R, form open): as the sequence (P08922 whole entry, stated change not applied) above, with G2032R counted along it
Sequence of Ba/F3 cells containing Ros1 with a mutation at the gatekeeper residue (L2026M) (P08922 whole entry L2026M, form open): as the sequence (P08922 whole entry, stated change not applied) above, with L2026M counted along it
T2 sequence (P08922 28-2347): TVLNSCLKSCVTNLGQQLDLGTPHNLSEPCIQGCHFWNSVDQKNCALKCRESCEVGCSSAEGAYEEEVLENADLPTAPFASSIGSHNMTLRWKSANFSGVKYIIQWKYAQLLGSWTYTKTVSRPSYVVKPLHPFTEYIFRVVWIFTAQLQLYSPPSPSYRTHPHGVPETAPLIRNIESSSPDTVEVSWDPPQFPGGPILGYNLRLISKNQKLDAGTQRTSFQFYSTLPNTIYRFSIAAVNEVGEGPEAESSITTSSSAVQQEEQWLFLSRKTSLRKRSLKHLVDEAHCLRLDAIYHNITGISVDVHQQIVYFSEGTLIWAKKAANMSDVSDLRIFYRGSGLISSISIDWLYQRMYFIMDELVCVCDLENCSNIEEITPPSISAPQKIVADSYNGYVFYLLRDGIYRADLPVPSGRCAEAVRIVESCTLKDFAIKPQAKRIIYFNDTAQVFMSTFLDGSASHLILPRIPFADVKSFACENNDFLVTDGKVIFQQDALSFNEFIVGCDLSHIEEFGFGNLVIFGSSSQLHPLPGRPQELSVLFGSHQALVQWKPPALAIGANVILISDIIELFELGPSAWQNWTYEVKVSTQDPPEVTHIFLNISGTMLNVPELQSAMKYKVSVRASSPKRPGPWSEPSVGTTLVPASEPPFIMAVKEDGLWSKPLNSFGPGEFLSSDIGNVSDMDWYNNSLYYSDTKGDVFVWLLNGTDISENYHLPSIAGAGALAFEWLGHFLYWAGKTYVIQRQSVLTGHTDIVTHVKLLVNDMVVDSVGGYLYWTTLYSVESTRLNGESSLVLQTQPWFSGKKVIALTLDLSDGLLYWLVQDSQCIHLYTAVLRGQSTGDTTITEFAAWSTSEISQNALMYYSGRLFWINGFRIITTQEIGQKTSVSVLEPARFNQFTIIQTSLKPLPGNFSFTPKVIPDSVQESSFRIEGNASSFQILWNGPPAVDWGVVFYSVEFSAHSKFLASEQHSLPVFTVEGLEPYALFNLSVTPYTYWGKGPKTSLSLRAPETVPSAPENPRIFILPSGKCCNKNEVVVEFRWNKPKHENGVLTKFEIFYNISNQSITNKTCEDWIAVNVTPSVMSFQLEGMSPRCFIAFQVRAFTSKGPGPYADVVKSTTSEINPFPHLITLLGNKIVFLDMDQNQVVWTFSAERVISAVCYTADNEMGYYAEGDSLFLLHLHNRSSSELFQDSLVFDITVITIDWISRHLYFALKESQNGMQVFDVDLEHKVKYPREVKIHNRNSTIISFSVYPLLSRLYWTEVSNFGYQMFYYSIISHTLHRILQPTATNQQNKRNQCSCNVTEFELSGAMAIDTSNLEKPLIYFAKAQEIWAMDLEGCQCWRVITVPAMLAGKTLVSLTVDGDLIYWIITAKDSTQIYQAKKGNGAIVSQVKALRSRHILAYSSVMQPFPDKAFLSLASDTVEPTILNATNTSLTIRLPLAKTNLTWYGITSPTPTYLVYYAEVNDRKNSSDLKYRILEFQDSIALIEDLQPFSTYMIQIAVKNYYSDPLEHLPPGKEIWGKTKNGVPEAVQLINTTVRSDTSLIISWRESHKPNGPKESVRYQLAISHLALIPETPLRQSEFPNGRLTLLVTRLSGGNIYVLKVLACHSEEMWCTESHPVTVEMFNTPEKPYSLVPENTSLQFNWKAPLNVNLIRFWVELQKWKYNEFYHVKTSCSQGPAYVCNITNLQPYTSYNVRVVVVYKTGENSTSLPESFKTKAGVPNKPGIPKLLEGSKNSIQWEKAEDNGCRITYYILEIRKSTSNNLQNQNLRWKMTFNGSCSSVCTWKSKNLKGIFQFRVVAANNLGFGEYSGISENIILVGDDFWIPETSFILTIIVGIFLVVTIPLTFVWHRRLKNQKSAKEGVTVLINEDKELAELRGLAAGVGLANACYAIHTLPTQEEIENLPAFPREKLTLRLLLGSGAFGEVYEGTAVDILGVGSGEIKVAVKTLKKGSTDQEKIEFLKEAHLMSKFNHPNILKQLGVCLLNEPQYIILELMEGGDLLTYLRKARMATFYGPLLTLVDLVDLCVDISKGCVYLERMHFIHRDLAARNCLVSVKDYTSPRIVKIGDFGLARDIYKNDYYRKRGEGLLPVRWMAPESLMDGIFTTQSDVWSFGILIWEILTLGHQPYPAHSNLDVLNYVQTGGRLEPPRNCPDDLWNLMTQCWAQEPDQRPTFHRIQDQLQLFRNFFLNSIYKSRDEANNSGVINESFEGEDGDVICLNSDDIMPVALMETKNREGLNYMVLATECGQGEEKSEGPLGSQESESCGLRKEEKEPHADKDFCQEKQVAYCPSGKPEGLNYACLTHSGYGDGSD

| Compound | BaF3-ROS1-IL3 pIC50 [1] | EC50 [2] [nM] | Ba/3 Ros1 G2032R (-IL-3) pIC50 [3] | melting point [°C] | Ba/F3 Ros1 L2026M (-IL-3) pIC50 [4] | IC50 [5] [nM] | CC50 [6] [nM] | HCC-78 PROL pEC50 ([2]; HCC78 cells, 4 days, MTT) | ROS1 pIC50 [5] | EC50 ([2]; HCC78 cells, 4 days, MTT) [nM] | CC50 [6, 8] [nM] | IC50 ([7]; HCC78, 4 h) [nM] | IC50 [7, 9] [nM] |
| --- | --- | --- | --- | --- | --- | --- | --- | --- | --- | --- | --- | --- | --- |
| CC(C)c1ccc(COc2ccc(-c3c(-c4ccncc4)nn4c3C(=O)NCC4)cc2F)cc1 [Compound 18] | 7.7 | 39.8 | 7.3 | 241 | 7.7 | 10 | > 10000 | – | – | – | – | – | – |
| CC(C)c1ccc(COc2ccc(-c3c(-c4ccncc4)nn4c3C(=O)N(CCO)CC4)cc2F)cc1 [Compound 19] | 8.2 | < 31.6 | 7.5 | 172 | 8.0 | 12.6 | > 10000 | – | – | – | – | – | – |
| CC(C)c1ccc(COc2ccc(-c3c(-c4ccncc4)nn4c3C(=O)N(CCO)CC4)c(F)c2)cc1 [Compound 21] | 7.8 | 39.8 | 7.4 | 141 | 7.6 | 10 | > 10000 | – | – | – | – | – | – |
| CC(C)c1ccc(COc2ccc(-c3c(-c4ccncc4)nn4c3C(=O)N(CCO)CC4)c(C#N)c2)cc1 [Compound 28] | 7.8 | 63.1 | 7.3 | 185 | 7.7 | 15.8 | > 10000 | – | – | – | – | – | – |
| CC(C)c1ccc(COc2ccc(-c3c(-c4ccncc4)nn4c3C(=O)N(CC(O)CO)CC4)cc2)cc1 (stereo not shown) [Compound 44] | 7.4 | – | 6.8 | 192 | 6.9 | 50.1 | – | 6.6 | – | – | – | – | – |
| CC(O)CN1CCn2nc(-c3ccncc3)c(-c3ccc(OCc4ccc(C(C)C)cc4)cc3)c2C1=O (stereo not shown) [Compound 46] | 7.5 | – | 6.9 | 177 | 7.1 | – | – | 7.0 | 7.3 | – | – | – | – |
| CC(O)CN1CCn2nc(-c3ccncc3)c(-c3ccc(OCc4ccc(C(C)C)cc4)cc3)c2C1=O (stereo not shown) [Compound 47] | 7.3 | – | 6.9 | – | 7.5 | 50.1 | – | – | – | 79.4 | > 10000 | – | – |
| CC(C)c1ccc(COc2ccc(-c3c(-c4ccncc4)nn4c3C(=O)N(CC(C)(C)O)CC4)cc2)cc1 [Compound 51] | 7.2 | 100 | 6.6 | 211 | 7.3 | 79.4 | > 10000 | – | – | – | – | – | – |
| CC(C)c1ccc(COc2ccc(-c3c(-c4ccncc4)nn4c3C(=O)N(CCOCCO)CC4)cc2)cc1 [Compound 53] | 7.4 | – | 7.0 | 121 | 6.9 | 39.8 | – | – | – | 100 | > 10000 | – | – |
| CNC(=O)CN1CCn2nc(-c3ccncc3)c(-c3ccc(OCc4ccc(C(C)C)cc4)cc3)c2C1=O [Compound 63] | 7.1 | 398 | 6.7 | 161 | 7.3 | 100 | > 10000 | – | – | – | – | – | – |
| COCCc1cc(COc2ccc(-c3c(-c4ccncc4)nn4c3C(=O)NCC4)cc2)ccc1C(C)C [Compound 84] | 7.7 | 31.6 | 7.0 | 208 | 7.2 | 25.1 | > 10000 | – | – | – | – | – | – |
| CC(C)c1cc(F)c(COc2ccc(-c3c(-c4ccncc4)nn4c3C(=O)N(CCO)CC4)cc2)cc1F [Compound 97] | 6.9 | 3160 | <5 | 147 | 6.3 | 158 | > 10000 | – | – | – | – | – | – |
| COc1cc(-c2c(-c3ccnc(N)c3)nn3c2C(=O)NCC3)ccc1OCc1ccc(C(C)C)cc1 [Compound 149] | 7.6 | < 31.6 | – | 179 | 7.4 | 7.94 | > 10000 | – | – | – | – | 12.6 | – |
| CC(C)c1ccc(COc2ccc(-c3c(-c4ccncn4)nn4c3C(=O)N(C(C)C)CC4)cc2)cc1 [Compound 160] | 7.3 | – | – | 166 | 7.3 | 39.8 | – | – | – | 100 | > 10000 | – | 31.6 |
| CC(C)c1ccc(COc2ccc(-c3c(-c4ccncn4)nn4c3C(=O)N(CCN)CC4)cc2)cc1 [Compound 165] | 6.7 | – | – | 154 | 6.5 | 200 | – | – | – | 1260 | > 10000 | – | 631 |
| CC(C)c1ccc(C2CCc3cc(-c4c(-c5ccncc5)nn5c4C(=O)N(CCO)CC5)ccc3O2)cc1 (stereo not shown) [Compound 200] | 7.3 | 316 | 6.6 | – | 6.3 | 126 | > 10000 | – | – | – | – | – | – |
| CC(C)c1ccc(COc2ccc(-c3c(-c4ccncn4)nn4c3C(=O)N(C)CC4)cc2)cc1 [Compound 214] | 7.4 | – | – | 160 | 7.3 | 31.6 | – | – | – | 100 | > 10000 | – | 31.6 |
